Where a name gives a salt, the structure may show the parent alone.
Tested on: Demodex
Experiment: Acaricidal experiment: Demodex culture in vitro, survival time of mites
Conditions: adult Demodex, 20° C., 96% humidity
Protocol: This study strictly followed the ethical principles of the Declaration of Helsinki, and Ethical Guidelines for Biomedical Research Involving Human Subjects. In this study, Demodex was collected from patients diagnosed with ocular Demodex infection. Those meeting the inclusion criteria would be enrolled after an informed conversation and signing an informed consent form.
Demodex detection was performed according to the conventional eyelash microscopic examination method. 3 eyelashes were extracted from each eyelid, and a total of 12 eyelashes were extracted. The extracted eyelashes were immediately placed on a glass slide, and one piece of each three eyelashes was placed under an ordinary light microscope for observation. Demodex at all stages were counted and classified according to morphology (specific criteria were: Demodex brevis at a head-to-body ratio of 1:1 and Demodex folliculorum at a head-to-body ratio of 1:3 to 1:4). Only adults that were fully exposed to the field of view were taken as subjects (larvae and eggs were not considered as subjects since they were more fragile in early life).
Based on the above detection of Demodex, 50 μl of different solutions were added to each slide, and the survival of the worms was observed every 1 hour. The death was judged by observing whether the worms were active (body, limbs, or the like) under a microscope. Two skilled Demodex-related experimenters observed and judged separately during the experiment. If the judgment results were different, the third skilled experimenter was asked to make an independent judgment. The culture in vitro was performed in a climate chamber at 20° C. and 96% humidity. Slides were transported in a humid chamber under observation and the solution was added appropriately to ensure high humidity before vacuoles appeared on solution evaporation.

N[C@H]1C[C@@H]1c1ccccc1 [Hydrochloride salt of V-C]
Average survival time of mites (concentration 1 mg/mL in 0.9% NaCl solution): 7.44 ± 6.07 h
Average survival time of mites (concentration 3 mg/mL in 0.9% NaCl solution): 5.66 ± 0.91 h
Average survival time of mites (concentration 10 mg/mL in 0.9% NaCl solution): 2.89 ± 1.08 h
Average survival time of mites (concentration 30 mg/mL in 0.9% NaCl solution): 2.24 ± 1.32 h

From patent US20240293370A1, “USE OF COMPOUNDS IN INHIBITING OR KILLING MITES AND TREATING XEROPHTHALMIA” (Precvision Biotechnologies LTD., priority 2021, published 2024)
